Experimental findings from PubChem BioAssay (NCI) are described below.

One may read the TGI as the concentration giving total growth inhibition.

Molecules are shown by their SMILES. “And” between values parts separate entries of the source, which are not always exact repeats. Equal values may be shown once.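 Cells were grown in 96-well plates and exposed to each compound for 48 hours at five concentrations; endpoints were interpolated linearly between bracketing concentrations, or set to the highest concentration if not reached. Definition used: TGI = concentration required for complete inhibition of growth.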

One assay relates to RXF 393 renal. As to the kind of experiment: DTP human tumour cell line panel, 48 h.
As to `OCCCCCNc1c2ccccc2nc2ccccc12`, the total growth inhibition concentration (TGI) turned out to be 10.9 µM.
Same read-out and setting: the result for `CCOP(=O)(OCC)/C(C#N)=C/c1cnc(-c2ccccc2)[nH]1` reads above 100 µM; that for `CC(=O)OCC1OC(OC(C)(C)CC/C=C(\C)[C@@H]2C/C=C(\C)CC/C=C(\C)CC2)C(O)C(O)C1OC(C)=O` (some centres undefined), above 100 µM; that for `O=C(/C=C/c1ccc(O)c([N+](=O)[O-])c1)CC(=O)/C=C/c1ccc(O)c([N+](=O)[O-])c1`, above 100 µM.
For `Cn1cc2ccccc2c1-c1nc(N)nc(F)n1`, the TGI was above 100 µM.
On the same count and under the same terms, the result for `CC1=C(O)C(=O)[C@@H]2O[C@@H]2C1=O` reads 7.88 µM; that for `CC(O[Si](c1ccccc1)(c1ccccc1)C(C)(C)C)[C@H](NC(=O)OC(C)(C)C)C(=O)O[Si](c1ccccc1)(c1ccccc1)C(C)(C)C` (some centres undefined), 26.9 µM; that for `Cc1nc2c(sc(=S)n2-c2ccccc2)c2nc3ncccc3n12`, above 100 µM.
As to `Cc1ccc(-c2c(C#N)c(-c3ccccc3)n(NS(=O)(=O)c3ccccc3)c(=O)c2C#N)cc1`, the total growth inhibition concentration (TGI) is above 100 µM.
On the same count and under the same terms, the result for `COc1ccc(C(C#N)NNC(=O)c2ccccc2O)cc1OC` (centres undefined) reads 36.4 µM; that for `O=c1[nH]n2c(=O)cc[nH]c2c1-c1nnns1`, above 100 µM.

Another assay deals with RPMI-8226 leukemia. Description: DTP human tumour cell line panel, 48 h.
`NC(C(F)(F)F)(C(F)(F)F)P(=O)(Cc1ccccc1)Cc1ccccc1` showed a concentration for total growth inhibition (TGI) above 100 µM.
`S=C(N/N=C\C=N/NC(=S)N1CCCCC1)N1CCCCC1` came in with a concentration for total growth inhibition (TGI) above 100 µM.
As to `C=C1CC(COc2cc(=O)oc3ccccc23)(c2ccccc2)OC1=O` (centres undefined), the TGI stood at 4.01 µM.
The same measure, in the same setting: under `CC(C)(C)c1ccc2c(c1)CNCCNCc1cc(C(C)(C)C)ccc1OCC1(CO2)COc2ccc(C(C)(C)C)cc2CNCCNCc2cc(C(C)(C)C)ccc2OC1` stands 4.2 µM; under `Nc1cc(CO)cc(Nc2nc3ccc(Cl)cc3c3[nH]c4ccccc4c23)c1`, 9.78 µM; under `CCN1CC2=C(NC(=S)NC2c2ccc(Cl)cc2)/C(=C/c2ccc(Cl)cc2)C1` (centres undefined), 90.9 µM.
Still for that read-out and setting: under `NC(=O)N/N=C(\Cc1nc2ccc(Cl)cc2[nH]c1=O)C(=O)Nc1ccc(Cl)cc1Cl` stands above 100 µM.
Same read-out and setting: under `OCCCCCNc1c2ccccc2nc2ccccc12` stands 33.2 µM.
Take `CCOP(=O)(OCC)/C(C#N)=C/c1cnc(-c2ccccc2)[nH]1`: the TGI was above 100 µM.
The same measure, in the same setting: the result for `CC(=O)OCC1OC(OC(C)(C)CC/C=C(\C)[C@@H]2C/C=C(\C)CC/C=C(\C)CC2)C(O)C(O)C1OC(C)=O` (some centres undefined) reads 70.6 µM and > 100 µM; that for `O=C(/C=C/c1ccc(O)c([N+](=O)[O-])c1)CC(=O)/C=C/c1ccc(O)c([N+](=O)[O-])c1`, 34.5 µM; that for `OCC1CCCCCCCCCCC12SCCCS2` (centres undefined), above 100 µM.
With `CC(C)=CCOC(=O)C(C)=[N+]=[N-]`, the TGI is above 100 µM.
Compound `Cn1cc2ccccc2c1-c1nc(N)nc(F)n1` registered a total growth inhibition concentration (TGI) above 100 µM.
Still for that read-out and setting: the result for `CC1=C(O)C(=O)[C@@H]2O[C@@H]2C1=O` reads 16.5 µM.
On the same count and under the same terms, the result for `CC(O[Si](c1ccccc1)(c1ccccc1)C(C)(C)C)[C@H](NC(=O)OC(C)(C)C)C(=O)O[Si](c1ccccc1)(c1ccccc1)C(C)(C)C` (some centres undefined) reads 62.6 µM; that for `Cc1nc2c(sc(=S)n2-c2ccccc2)c2nc3ncccc3n12`, above 100 µM; that for `Cc1ccc(-c2c(C#N)c(-c3ccccc3)n(NS(=O)(=O)c3ccccc3)c(=O)c2C#N)cc1`, 55.3 µM.
Compound `COc1ccc(C(C#N)NNC(=O)c2ccccc2O)cc1OC` (centres undefined) had a TGI above 100 µM.
Same read-out and setting: under `O=c1[nH]n2c(=O)cc[nH]c2c1-c1nnns1` stands above 100 µM; under `N.N.N.O=[N+]([O-])[O-].O=[N+]([O-])[O-].O=[N+]([O-])[O-].O=[N+]([O-])[O-].[Co+3]`, above 100 µM.

The subject of a further assay is NCI-H226 lung. As to the kind of experiment: DTP human tumour cell line panel, 48 h.
Turning to `S=C(N/N=C\C=N/NC(=S)N1CCCCC1)N1CCCCC1`, the TGI is above 68.1 µM.
Same read-out and setting: the result for `C=C1CC(COc2cc(=O)oc3ccccc23)(c2ccccc2)OC1=O` (centres undefined) reads 19.3 µM.
Same read-out and setting: under `Cc1cc(N(CCC#N)CCC#N)ccc1/C=N/NC(=O)c1cc(Cl)ccc1O` stands above 100 µM.
In the case of `CC(C)(C)c1ccc2c(c1)CNCCNCc1cc(C(C)(C)C)ccc1OCC1(CO2)COc2ccc(C(C)(C)C)cc2CNCCNCc2cc(C(C)(C)C)ccc2OC1`, the total growth inhibition concentration (TGI) was 2.26 µM.
Take `CCN1CC2=C(NC(=S)NC2c2ccc(Cl)cc2)/C(=C/c2ccc(Cl)cc2)C1` (centres undefined): the TGI is above 100 µM.
Still for that read-out and setting: the result for `CCOC(=O)C1Cc2[nH]c3ccccc3c2C(C)C1C` (centres undefined) reads 25.3 µM; that for `NC(=O)N/N=C(\Cc1nc2ccc(Cl)cc2[nH]c1=O)C(=O)Nc1ccc(Cl)cc1Cl`, above 100 µM; that for `CCOP(=O)(OCC)/C(C#N)=C/c1cnc(-c2ccccc2)[nH]1`, above 100 µM.
On the same count and under the same terms, the result for `CC(=O)OCC1OC(OC(C)(C)CC/C=C(\C)[C@@H]2C/C=C(\C)CC/C=C(\C)CC2)C(O)C(O)C1OC(C)=O` (some centres undefined) reads > 100 µM and 16.2 µM.
On the same count and under the same terms, under `O=C(/C=C/c1ccc(O)c([N+](=O)[O-])c1)CC(=O)/C=C/c1ccc(O)c([N+](=O)[O-])c1` stands above 100 µM; under `OCC1CCCCCCCCCCC12SCCCS2` (centres undefined), above 100 µM; under `CC(C)=CCOC(=O)C(C)=[N+]=[N-]`, above 100 µM.
In turn, `Cn1cc2ccccc2c1-c1nc(N)nc(F)n1` displayed a total growth inhibition concentration (TGI) above 100 µM.
Same read-out and setting: under `CC1=C(O)C(=O)[C@@H]2O[C@@H]2C1=O` stands 37 µM; under `Cc1ccc(-c2c(C#N)c(-c3ccccc3)n(NS(=O)(=O)c3ccccc3)c(=O)c2C#N)cc1`, above 100 µM.
Turning to `COc1ccc(C(C#N)NNC(=O)c2ccccc2O)cc1OC` (centres undefined), the TGI was 22.4 µM.
For `O=c1[nH]n2c(=O)cc[nH]c2c1-c1nnns1`, the concentration for total growth inhibition (TGI) is above 100 µM.
